Earlier results in patent US20070098750A1, “PESTICIDAL COMPOSITIONS CONTAINING ISOPROPYL MYRISTATE AND ANALOGS OF SAME AS A SYNERGIST FOR PLANT ESSENTIAL OILS” (EcoSmart Technologies, Inc., priority 2005, published 2007).

CCCCOCCOCCOCc1cc2c(cc1CCC)OCO2 [PBO, piperonyl butoxide]
Chronic toxicity finding (even at the lowest doses, 30 mg/kg/day): increased liver weights
Carcinogenicity finding in animal studies (even treatments as low as 1.2%): hepatocellular carcinomas
